# Laboratory results as given in US9476099B2 (TRUSTEES OF DARTMOUTH COLLEGE, priority 2012, dated 2016).
# Several values for one entry are separate records, joined by “and”; a condition that tells them apart may be missing. Identical values can stand only once.
# Test system: NT2/D1-R1 control and DNMT3B knockdown cells
# Assay: Genome-wide expression analysis with PAM clusters, control and DNMT3B knockdown cells (Tables 8-14)
# Conditions: sh-3B + aza
# [1] = NT2/D1-R1 DNMT3B knockdown, decitabine 10 nM 3 days
compound,measurement,setting,value
Nc1ncn([C@H]2C[C@H](O)[C@@H](CO)O2)c(=O)n1 [aza],LOC644422 XR_019449 expression Mean,"10 nM decitabine, 3 days",223.185
same,LOC647954 XR_018676 expression Mean,"10 nM decitabine, 3 days",1052.7
same,LOC728715 XM_0011282 expression Mean,"10 nM decitabine, 3 days",877.255
same,M6PRBP1 NM_005817 expression Mean,"10 nM decitabine, 3 days",907.761
same,MBNL3 NM_133486 expression Mean,"10 nM decitabine, 3 days",272.09
same,MCM4 NM_005914 expression Mean,"10 nM decitabine, 3 days",2040.37
same,MEPCE NM_019606 expression Mean,"10 nM decitabine, 3 days",354.1
same,METTL1 NM_005371 expression Mean,"10 nM decitabine, 3 days",266.779
same,MORF4L2 NM_012286 expression Mean,"10 nM decitabine, 3 days",2564.56
same,MRTO4 NM_016183 expression Mean,"10 nM decitabine, 3 days",654.553
same,MT1E NM_175617 expression Mean,"10 nM decitabine, 3 days",1985.42
same,MTA2 NM_004739 expression Mean,"10 nM decitabine, 3 days",325.004
same,MYOF NM_013451 expression Mean,"10 nM decitabine, 3 days",177.015
same,MYOF NM_133337 expression Mean,"10 nM decitabine, 3 days",293.772
same,NACC2 NM_144653 expression Mean,"10 nM decitabine, 3 days",245.995
same,NAT5 NM_181528 expression Mean,"10 nM decitabine, 3 days",1059.57
same,NBPF10 NM_0010376 expression Mean,"10 nM decitabine, 3 days",370.658
same,NBPF10 NM_0010397 expression Mean,"10 nM decitabine, 3 days",345.645
same,NEFH NM_021076 expression Mean,"10 nM decitabine, 3 days",407.674
same,NFE2 NM_006163 expression Mean,"10 nM decitabine, 3 days",245.362
same,NM_002467 expression Mean,"10 nM decitabine, 3 days",595.692
same,NM_0010397 expression Mean,"10 nM decitabine, 3 days",405.052
same,NM_138781 expression Mean,"10 nM decitabine, 3 days",305.526
same,NODAL NM_018055 expression Mean,"10 nM decitabine, 3 days",1549.19
same,NOP2 NM_0010337 expression Mean,"10 nM decitabine, 3 days",5354.42
same,NOP56 NM_006392 expression Mean,"10 nM decitabine, 3 days",2368.5
same,NP NM_000270 expression Mean,"10 nM decitabine, 3 days",340.821
same,NR_002773 expression Mean,"10 nM decitabine, 3 days",394.199
same,NR_003287 expression Mean,"10 nM decitabine, 3 days",182.319
same,NTF3 NM_002527 expression Mean,"10 nM decitabine, 3 days",184.819
same,NTS NM_006183 expression Mean,"10 nM decitabine, 3 days",457.501
same,NUAK2 NM_030952 expression Mean,"10 nM decitabine, 3 days",225.181 and 195.684
same,OAT NM_000274 expression Mean,"10 nM decitabine, 3 days",2711.86
same,ODC1 NM_002539 expression Mean,"10 nM decitabine, 3 days",2404.47
same,PAK1IP1 NM_017906 expression Mean,"10 nM decitabine, 3 days",603.531
same,PEA15 NM_003768 expression Mean,"10 nM decitabine, 3 days",969.289
same,PEG3 NM_006210 expression Mean,"10 nM decitabine, 3 days",256.384
same,PITX1 NM_002653 expression Mean,"10 nM decitabine, 3 days",267.398
same,PLAU NM_002658 expression Mean,"10 nM decitabine, 3 days",325.966
same,PLEKHF1 NM_024310 expression Mean,"10 nM decitabine, 3 days",367.904
same,POLR1C NM_203290 expression Mean,"10 nM decitabine, 3 days",414.276 and 557.268
same,PPA2 NM_006903 expression Mean,"10 nM decitabine, 3 days",606.161
same,PPAN NM_002566 expression Mean,"10 nM decitabine, 3 days",287.832
same,RBM22 NM_018047 expression Mean,"10 nM decitabine, 3 days",700.828
same,RNMTL1 NM_018146 expression Mean,"10 nM decitabine, 3 days",432.796
same,RPL6 NM_0010246 expression Mean,"10 nM decitabine, 3 days",1608.44
same,RRM2 NM_001034 expression Mean,"10 nM decitabine, 3 days",799.058
same,RSL1D1 NM_015659 expression Mean,"10 nM decitabine, 3 days",1458.69
same,RUNX3 NM_004350 expression Mean,"10 nM decitabine, 3 days",191.132
same,SERPINE1 NM_000602 expression Mean,"10 nM decitabine, 3 days",246.121
same,SERTAD1 NM_013376 expression Mean,"10 nM decitabine, 3 days",291.604
same,SFXN4 NM_213649 expression Mean,"10 nM decitabine, 3 days",481.671
same,SIDT2 NM_0010404 expression Mean,"10 nM decitabine, 3 days",326.437
same,SLC20A1 NM_005415 expression Mean,"10 nM decitabine, 3 days",1225.68
same,SNAPC4 NM_003086 expression Mean,"10 nM decitabine, 3 days",599.752
same,SOCS2 NM_003877 expression Mean,"10 nM decitabine, 3 days",182.936 and 244.438
same,SOX15 NM_006942 expression Mean,"10 nM decitabine, 3 days",1693.21
same,SPANXD NM_145665 expression Mean,"10 nM decitabine, 3 days",121.39
same,SPRYD5 NM_032681 expression Mean,"10 nM decitabine, 3 days",293.721
same,SQSTM1 NM_003900 expression Mean,"10 nM decitabine, 3 days",885.073
same,SRRT NM_015908 expression Mean,"10 nM decitabine, 3 days",2745.27
same,SUSD2 NM_019601 expression Mean,"10 nM decitabine, 3 days",1694.29
same,TAGLN NM_003186 expression Mean,"10 nM decitabine, 3 days",489.068
same,TNFRSF12A NM_016639 expression Mean,"10 nM decitabine, 3 days",296.715
same,TNFRSF13B NM_012452 expression Mean,"10 nM decitabine, 3 days",214.796
same,TNPO1 NM_153188 expression Mean,"10 nM decitabine, 3 days",240.816
same,TPRG1L NM_182752 expression Mean,"10 nM decitabine, 3 days",762.223
same,TRIM8 NM_030912 expression Mean,"10 nM decitabine, 3 days",529.909
same,TTC4 NM_004623 expression Mean,"10 nM decitabine, 3 days",851.239
same,UTP14A NM_006649 expression Mean,"10 nM decitabine, 3 days",736.541
same,WBSCR22 NM_017528 expression Mean,"10 nM decitabine, 3 days",958.822
same,XM_0011261 expression Mean,"10 nM decitabine, 3 days",824.879
same,XM_0011281 expression Mean,"10 nM decitabine, 3 days",1290.15
same,XR_015970 expression Mean,"10 nM decitabine, 3 days",527.915
same,XR_016703 expression Mean,"10 nM decitabine, 3 days",4025.84
same,XR_017241 expression Mean,"10 nM decitabine, 3 days",5144.11
same,XR_017543 expression Mean,"10 nM decitabine, 3 days",410.447
same,ZDHHC6 NM_022494 expression Mean,"10 nM decitabine, 3 days",344.248
same,ZHX2 NM_014943 expression Mean,"10 nM decitabine, 3 days",196.281
same,"A4GALT (NM_017436) gene expression, Mean",[1],279.705
same,"ABR (NM_001092) gene expression, Mean",[1],376.941
same,"ACACA (NM_198836) gene expression, Mean",[1],630.777
